How the values were obtained:
[1] = target: M2 receptor (Homo sapiens (Human), UniProt P08172); test: M2 receptor affinity test (3H-NMS competition); type: binding; conditions: M2 receptor membrane protein, 0.2 nM 3H-NMS
Method: M2 receptor is a G protein-coupled receptor. In this experiment, the activity of test compound against the M2 receptor in vitro was assayed by the competition of radioisotope labeled NMS and non-isotope labeled test compound for an M2 binding site.
The M2 receptor membrane protein was prepared at 100 μg/mL by Biology Department of WuXi AppTec, and compound was serially diluted in a 2.5-fold gradient in DMSO to obtain 10 concentrations. Radioisotope 3H-NMS was prepared at 0.2 nM in an assay buffer (10 mM HEPES, 1 mM MgCl2, pH 7.40). In formal testing, the experimental system comprising 1 μL of the test compound, 100 μL of M2 receptor membrane protein and 100 μL of radioisotope was shaken in a shaker at 300 RPM for 2 h at room temperature. A GF/C plate (Perkin Elmer, Cat No. 6055690) was prefoamed with 0.3% PEI, and the membrane proteins in the reaction solution were collected by filtration onto the GF/C plate. The signal values were read by a Perkin Elmer Microbeta2 instrument and the inhibition rate for each concentration point was shown as a percentage.

[2] = Crystal stability under high humidity conditions, TGA after placement; type: physicochemical; conditions: 24 hours
Method: • Instrument model: TA Q5000/5500 Thermal Gravimetric Analyzer • Test method: Taking a sample (about 1 to 5 mg) and placing in a TGA aluminum dish for testing, and heating the sample from room temperature to 350° C. at a heating rate of 10° C./min under 10 mL/min N2 conditions.
The crystal form C of the compound of formula (I) was placed under different humidity conditions at room temperature and then tested by TGA to preliminarily evaluate its water content changes under different humidity conditions.

[3] = Dynamic vapor sorption (DVS) test; type: physicochemical
Method: • Instrument model: SMS DVS Advantage Dynamic Vapor Sorption Analyzer • Test conditions: Taking a sample (10 to 15 mg) and placing in a DVS sample dish for testing. • Detailed DVS parameters are as follows: • Temperature: 25° C. • Equilibration: dm/dt=0.01%/min (Minimum: 10 min, Maximum: 180 min) • Drying: drying 120 min under 0% RH • RH (%) test gradient: 10% • RH (%) test gradient range: 0% to 90% to 0%.
At the same time, a DVS test was performed on the crystal form C of the compound of formula (I).

[4] = Crystal stability under 94% RH, XRPD after placement; type: physicochemical; conditions: 94% RH at room temperature for 1 to 2 weeks
Method: • Instrument model: X' Pert3. • Method: taking a sample of about 10 to 20 mg for XRPD analysis. • Detailed XRPD parameters are as follows: • X-ray source: Cu, kα (Kα1=1.540598 Δ, Kα2=1.544426 Δ, Kα2/Kα1 intensity ratio: 0.5) • Tube voltage: 45 kV, tube current: 40 mA • Divergence slit: fixed ⅛° • First seller slit: 0.04 rad, Second soller slit: 0.04 rad • Receiving slit: none, Anti-scatter slit: 7.5 mm • Measurement time: 5 min • scan range: 3 to 40° • Step width angle: 0.0263° • Step length: 46.665 seconds • Rotation speed of sample plate: 60 rpm
The crystal form E of the compound of formula (I) was placed under 94% RH at room temperature for 1 to 2 weeks and then subjected to XRPD testing to evaluate its solid stability in the high humidity environment.

Chain of M2 receptor (P08172 whole entry): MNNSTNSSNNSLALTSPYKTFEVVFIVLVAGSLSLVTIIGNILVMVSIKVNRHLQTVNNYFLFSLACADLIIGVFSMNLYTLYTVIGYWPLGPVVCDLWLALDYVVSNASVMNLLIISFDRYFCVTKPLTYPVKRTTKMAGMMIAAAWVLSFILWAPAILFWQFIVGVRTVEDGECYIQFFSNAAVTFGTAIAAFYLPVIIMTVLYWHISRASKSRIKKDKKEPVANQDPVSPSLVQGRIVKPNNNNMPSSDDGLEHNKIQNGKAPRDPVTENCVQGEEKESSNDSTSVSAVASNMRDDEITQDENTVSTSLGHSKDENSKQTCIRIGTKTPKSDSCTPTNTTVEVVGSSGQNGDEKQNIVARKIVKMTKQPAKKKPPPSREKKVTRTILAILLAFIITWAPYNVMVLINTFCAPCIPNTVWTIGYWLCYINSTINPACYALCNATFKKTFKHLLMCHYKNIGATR

## CN(CCCn1nnc2cc(CNC[C@H](O)c3ccc(O)c4[nH]c(=O)ccc34)c3c(c21)CCC3)[C@H]1CC[C@H](OC(=O)C(O)(c2cccs2)c2cccs2)CC1 [listing 1 of 3 here]
[1]
  IC50: 0.062 nM

## CN(CCCn1nnc2cc(CNC[C@H](O)c3ccc(O)c4[nH]c(=O)ccc34)c3c(c21)CCC3)[C@H]1CC[C@H](OC(=O)C(O)(c2cccs2)c2cccs2)CC1 [listing 2 of 3 here]
[2]; ~81% RH (saturated potassium bromide solution)/room temperature
  TGA weight loss (%, 150° C): 10.4%
[2]; ~94% RH (saturated potassium nitrate solution)/room temperature
  TGA weight loss (%, 150° C): 9.9%
[3]; 25° C./80% RH
  moisture adsorption: 7.84%
[3]; XRPD before and after DVS test
  crystal form after the DVS test (XRPD): remained unchanged

## CN(CCCn1nnc2cc(CNC[C@H](O)c3ccc(O)c4[nH]c(=O)ccc34)c3c(c21)CCC3)[C@H]1CC[C@H](OC(=O)C(O)(c2cccs2)c2cccs2)CC1 [listing 3 of 3 here]
[4]
  crystal form after placement (XRPD): remained unchanged
